From ChEMBL document CHEMBL1201862, “PubChem BioAssay data set” (2004)
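Test compounds were applied to cells in 96-well plates for 48 hours at 5 doses. GI50 marks 50% less growth.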 Active and inactive are the calls of the source. Cut-off read from the data, not from the text of the source: active = GI50 up to about 1.1 µM and inactive = higher.

Key:
Assay in all cases: growth of human tumour cells (NCI), 48 h
[1] = system: MDA-MB-231
[2] = system: U-251
[3] = system: OVCAR-8
[4] = system: Malme-3M
[5] = system: RPMI-8226
[6] = system: SN12C
[7] = system: M14
[8] = system: EKVX
[9] = system: DU-145
[10] = system: K562
[11] = system: NCI-H522
[12] = system: OVCAR-4
[13] = system: IGROV-1
[14] = system: SF-268
[15] = system: OVCAR-5
[16] = system: HT-29
[17] = system: NCI-H23
[18] = system: SK-MEL-5
[19] = system: LOX IMVI
[20] = system: UACC-62

Measured: GI50

O=c1[nH]nc(Cc2ccccc2)n1C1CCCC1
inactive: [1] > 100 µM | [2] > 100 µM | [3] > 100 µM | [4] > 100 µM | [5] > 100 µM | [6] > 100 µM | [7] > 100 µM | [8] > 100 µM | [9] > 100 µM | [10] > 100 µM | [11] > 100 µM | [12] > 100 µM | [13] > 100 µM | [14] > 100 µM | [15] > 100 µM | [16] > 100 µM | [17] > 100 µM | [18] > 100 µM | [19] > 100 µM | [20] > 100 µM

COc1ccc2c3c1OC1C4(CCC5C(C2)N(CC2CC2)CCC351)OCCO4 (stereo not given)
inactive: [1] > 100 µM | [2] > 100 µM | [3] > 100 µM | [4] > 100 µM | [5] > 100 µM | [6] > 100 µM | [7] > 100 µM | [8] > 100 µM | [9] > 100 µM | [10] > 100 µM | [11] > 100 µM | [12] > 100 µM | [13] > 100 µM | [14] > 100 µM | [15] > 100 µM | [16] > 100 µM | [17] > 100 µM | [18] > 100 µM | [19] > 100 µM | [20] > 100 µM

OC1(c2cccs2)c2cccc(Cl)c2C(O)(c2cccs2)c2c(Cl)cccc21 (stereo not given)
inactive: [1] 18.5 µM | [2] 26.6 µM | [3] 58.9 µM | [4] 80.2 µM | [5] > 100 µM | [6] 93.8 µM | [7] > 100 µM | [8] > 100 µM | [9] > 100 µM | [10] > 100 µM | [11] 96.6 µM | [12] > 100 µM | [13] 88.5 µM | [14] 22.3 µM | [15] > 100 µM | [16] > 100 µM | [17] 54.6 µM | [18] > 100 µM | [19] > 100 µM | [20] 34.3 µM
